These results are taken from ChEMBL document CHEMBL1133376, “Recognition and inhibition of HIV integrase by a novel dinucleotide” (Bioorg Med Chem Lett, 2000).

Assay [1] concerns the target Human immunodeficiency virus type 1 integrase (Human immunodeficiency virus 1) (UniProt Q7ZJM1). Briefly: Inhibition of 3' processing step useful in the integration of viral DNA into host cell DNA by inhibiting HIV integrase by compound.
Assay [2] has the same target. Briefly: Inhibition of strand transfer step useful in the integration of viral DNA into host cell DNA by inhibiting HIV integrase by compound.

Each structure is given as a SMILES string.

Chain of Human immunodeficiency virus type 1 integrase (Human immunodeficiency virus 1) (Q7ZJM1 as listed by the source): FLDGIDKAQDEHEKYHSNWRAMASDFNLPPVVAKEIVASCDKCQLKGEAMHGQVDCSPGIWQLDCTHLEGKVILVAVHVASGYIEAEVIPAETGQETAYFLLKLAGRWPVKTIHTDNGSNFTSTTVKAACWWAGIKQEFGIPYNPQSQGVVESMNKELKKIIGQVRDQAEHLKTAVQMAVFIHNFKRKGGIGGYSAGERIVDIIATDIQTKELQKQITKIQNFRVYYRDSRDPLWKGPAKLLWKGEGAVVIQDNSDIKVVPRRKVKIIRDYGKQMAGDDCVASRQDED

With `Cc1cn([C@H]2C[C@H](N=[N+]=[N-])[C@@H](COP(=O)(O)O)O2)c(=O)[nH]c1=O`, the Inhibitory activity in assay [1] was more than 110 µM; in assay [2] it was 140 µM.
For `Nc1ccn(C2CCC(COP(=O)(O)O)O2)c(=O)n1` (configuration not stated), in that order: 50 µM and 45 µM.
For `Nc1ncnc2c1ncn2C1COC(COP(=O)(O)O)C1O` (configuration not stated), in that order: more than 200 µM and more than 200 µM.
For `Nc1ccn([C@H]2C[C@H](O)[C@@H](COP(=O)(O)O[C@H]3[C@H](n4cnc5c(N)ncnc54)CO[C@@H]3COP(=O)(O)O)O2)c(=O)n1`, in that order: 19 µM and 25 µM.
On to `Nc1ccn([C@H]2C[C@H](O)[C@@H](COP(=O)(O)O[C@H]3C[C@H](n4cnc5c(N)ncnc54)O[C@@H]3COP(=O)(O)O)O2)c(=O)n1`, for which the Inhibitory activity is 6 µM in assay [1] and 3 µM in assay [2].
In the same order, the values of `Nc1ccn([C@H]2C[C@H](O)[C@@H](COP(=O)(O)O[C@H]3[C@H](n4cnc5c(N)ncnc54)CO[C@@H]3CO)O2)c(=O)n1` are 200 µM and 200 µM.
